Where two headings read alike, the source gives them in different places.
Tests used:
Type in all cases: cell-based, Hepatitis C virus
[1] = test system: HCV subgenomic stable replicon GT6a; assay: Stable HCV replicon luciferase assay in Huh-7 cells; settings: Hepatitis C virus, Huh-7, 0% human plasma, read-out: Mean EC50 ± SD
Excerpt: (§1) . Five of these nine cell lines have been described previously, including those transfected with genotypes 1a H77, 1b Con1, 3a, 4a, and 6a ([28]). The other four cell lines were established by transfecting cells with a nonchimeric genotype 2a JFH-1 replicon (GenBank accession number AB047639), two genotype 2a JFH-1 chimeric replicons containing either a genotype 2b NS3 protease domain (N-terminal 251 amino acids) or a sequence encoding full-length NS3 through the first 39 amino acids of NS5B from genotype 5a (strain SA13), and one chimeric replicon with a genotype 1b Con1 backbone containing full-length NS3 and NS4A sequences from genotype 6e. The genotype 2b and 6e NS3 sequences were each synthetically constructed based on a consensus sequence derived from the alignment of 15 genotype 2b and 4 genotype 6e sequences, respectively. All replicon constructs were bicistronic subgenomic replicons similar to those described by Bartenschlager and coworkers, and the replicon cell lines were generated by introducing these constructs into cells of an Huh-7 human hepatoma-derived cell line ([50]). The inhibitory effect of the PIs on HCV replication in replicon cells was determined in Dulbecco's modified Eagle medium containing 5% fetal bovine serum with or without 40% human plasma (Bioreclamation, Westbury, NY). The EC50s were determined using nonlinear regression curve fitting as described previously ([33]).

[2] = test system: HCV subgenomic stable replicon GT4a; assay: as above; settings: Hepatitis C virus, Huh-7, 0% human plasma, read-out: Mean EC50 ± SD
Excerpt: as §1

[3] = test system: HCV genotype 1a replicon; assay: Transient replicon assay with engineered substitutions
Procedure: (§2) Mutagenesis was performed using a Change-IT multiple-mutation site-directed mutagenesis kit (USB, Cleveland, OH) or by cloning a synthesized DNA fragment encoding the amino acid substitution(s). The genotype 1a and 1b replicon shuttle vectors used for the introduction of the substitutions of interest in the NS3, NS5A, or NS5B gene for transient-transfection assays have been described previously ([28], [33]). The replicon shuttle vectors used for the introduction of substitutions in NS3 genes from other genotypes were similar to the stable replicon cell line constructs described above, except for the absence of the neo gene. After mutagenesis, the plasmids were linearized and RNA was transcribed and then used to transfect Huh-7 cells. Inhibition of HCV replication by the HCV inhibitors was measured by luciferase assay, as described above. Replication efficiency was calculated as a percentage of wild-type replication, as described previously ([28]).

[4] = test system: HCV genotype 4d replicon; assay: as above; settings: for EC50: Hepatitis C virus, 96 h
Procedure: as §2

[5] = test system: HCV genotype 5a replicon; assay: as above
Procedure: as §2

[6] = test system: HCV genotype 3a replicon; assay: as above; settings: for EC50: Hepatitis C virus
Procedure: as §2

[7] = test system: HCV genotype 2b replicon; assay: as above; settings: for EC50: Hepatitis C virus
Procedure: as §2

[8] = test system: HCV genotype 4a replicon; assay: as above; settings: for EC50: Hepatitis C virus
Procedure: as §2

[9] = test system: HCV genotype 1b replicon; assay: as above
Procedure: as §2

[10] = test system: HCV genotype 6a replicon; assay: as above; settings: for EC50: Hepatitis C virus
Procedure: as §2

[11] = test system: HCV genotype 2a replicon; assay: as above
Procedure: as §2

[12] = test system: HCV subgenomic stable replicon GT3a; assay: microbe, parasite or virus in culture; settings: Hepatitis C virus, Huh-7, 0% human plasma, read-out: Mean EC50 ± SD
Excerpt: (§3) Five of these nine cell lines have been described previously, including those transfected with genotypes 1a H77, 1b Con1, 3a, 4a, and 6a ([28]). […] The genotype 2b and 6e NS3 sequences were each synthetically constructed based on a consensus sequence derived from the alignment of 15 genotype 2b and 4 genotype 6e sequences, respectively. All replicon constructs were bicistronic subgenomic replicons similar to those described by Bartenschlager and coworkers, and the replicon cell lines were generated by introducing these constructs into cells of an Huh-7 human hepatoma-derived cell line ([50]). The inhibitory effect of the PIs on HCV replication in replicon cells was determined in Dulbecco's modified Eagle medium containing 5% fetal bovine serum with or without 40% human plasma (Bioreclamation, Westbury, NY). The EC50s were determined using nonlinear regression curve fitting as described previously ([33]).

[13] = test system: HCV subgenomic stable replicon GT6e; assay: microbe, parasite or virus in culture; settings: Hepatitis C virus, Huh-7, 0% human plasma, read-out: Mean EC50 ± SD
Excerpt: as §3

Cc1cnc(C(=O)N[C@H]2CCCCC/C=C\[C@@H]3C[C@@]3(C(=O)NS(=O)(=O)C3CC3)NC(=O)[C@@H]3C[C@@H](Oc4nc5ccccc5c5ccccc45)CN3C2=O)cn1 [Paritaprevir]
EC50 [1]: 0.69 ± 0.09 nM | EC50 [2]: 0.09 ± 0.03 nM | Fold change ([3]; 1a NS3 A156T vs wild-type replicon): 17 fold | Fold change ([3]; 1a NS3 D168A vs wild-type replicon): 50 fold | Fold change ([3]; 1a NS3 D168E vs wild-type replicon): 14 fold | Fold change ([3]; 1a NS3 D168V vs wild-type replicon): 96 fold | Fold change ([3]; 1a NS3 F43L vs wild-type replicon): 20 fold | Fold change ([3]; 1a NS3 Q80K vs wild-type replicon): 2.8 fold | Fold change ([3]; 1a NS3 R155K vs wild-type replicon): 37 fold | Fold change ([3]; 1a NS3 T54S vs wild-type replicon): 0.4 fold | Fold change ([3]; 1a NS3 V36M vs wild-type replicon): 2.1 fold | Fold change ([3]; 1a NS3 V55I vs wild-type replicon): 1.0 fold | Fold change ([3]; 1a NS3 Y56H vs wild-type replicon): 2.9 fold | Fold change ([4]; 4d NS3 D168V vs wild-type replicon): 312 fold | EC50 ([4]; read-out: Mean EC50 ± SD, 4d NS3 D168V): 4.7 ± 0.91 nM | EC50 ([4]; read-out: Mean EC50 ± SD, 4d wild type, transient transfection): 0.015 ± 0.001 nM | Fold change ([5]; 5a NS3 D168E vs wild-type replicon): 23 fold | Fold change ([5]; 5a NS3 D168H vs wild-type replicon): 558 fold | Fold change ([6]; 3a NS3 A156G vs wild-type replicon): 57 fold | Fold change ([6]; 3a NS3 Q168R vs wild-type replicon): 29 fold | Fold change ([6]; 3a NS3 R155K vs wild-type replicon): 5.2 fold | EC50 ([6]; read-out: Mean EC50 ± SD, 3a NS3 A156G): 1770 nM | EC50 ([6]; read-out: Mean EC50 ± SD, 3a NS3 Q168R): 912 ± 221 nM | EC50 ([6]; read-out: Mean EC50 ± SD, 3a NS3 R155K): 161 ± 20 nM | EC50 ([6]; read-out: Mean EC50 ± SD, 3a wild type, transient transfection): 31 ± 7 nM | Fold change ([7]; 2b NS3 A156T vs wild-type replicon): 3.0 fold | Fold change ([7]; 2b NS3 A156V vs wild-type replicon): 5.0 fold | Fold change ([7]; 2b NS3 D168A vs wild-type replicon): 11 fold | Fold change ([7]; 2b NS3 D168E vs wild-type replicon): 2.2 fold | Fold change ([7]; 2b NS3 D168V vs wild-type replicon): 9.4 fold | EC50 ([7]; read-out: Mean EC50 ± SD, 2b NS3 A156T): 338 ± 86 nM | EC50 ([7]; read-out: Mean EC50 ± SD, 2b NS3 A156V): 573 ± 204 nM | EC50 ([7]; read-out: Mean EC50 ± SD, 2b NS3 D168A): 1310 nM | EC50 ([7]; read-out: Mean EC50 ± SD, 2b NS3 D168E): 256 ± 58 nM | EC50 ([7]; read-out: Mean EC50 ± SD, 2b NS3 D168V): 1070 nM | EC50 ([7]; read-out: Mean EC50 ± SD, 2b wild type, transient transfection): 114 ± 24 nM | Fold change ([8]; 4a NS3 A156T vs wild-type replicon): 40 fold | Fold change ([8]; 4a NS3 A156V vs wild-type replicon): 155 fold | Fold change ([8]; 4a NS3 D168H vs wild-type replicon): 252 fold | Fold change ([8]; 4a NS3 D168V vs wild-type replicon): 323 fold | Fold change ([8]; 4a NS3 R155C vs wild-type replicon): 59 fold | EC50 ([8]; read-out: Mean EC50 ± SD, 4a NS3 A156T): 1.9 ± 0.25 nM | EC50 ([8]; read-out: Mean EC50 ± SD, 4a NS3 A156V): 7.4 ± 1.6 nM | EC50 ([8]; read-out: Mean EC50 ± SD, 4a NS3 D168H): 12 ± 3 nM | EC50 ([8]; read-out: Mean EC50 ± SD, 4a NS3 D168V): 16 ± 1.9 nM | EC50 ([8]; read-out: Mean EC50 ± SD, 4a NS3 R155C): 2.8 ± 0.25 nM | EC50 ([8]; read-out: Mean EC50 ± SD, 4a wild type, transient transfection): 0.048 ± 0.01 nM | Fold change ([9]; 1b NS3 A156T vs wild-type replicon): 7.4 fold | Fold change ([9]; 1b NS3 A156V vs wild-type replicon): 21 fold | Fold change ([9]; 1b NS3 D168A vs wild-type replicon): 27 fold | Fold change ([9]; 1b NS3 D168E vs wild-type replicon): 4.4 fold | Fold change ([9]; 1b NS3 D168V vs wild-type replicon): 159 fold | Fold change ([9]; 1b NS3 R155K vs wild-type replicon): 40 fold | Fold change ([9]; 1b NS3 T54A vs wild-type replicon): 0.8 fold | Fold change ([9]; 1b NS3 V55A vs wild-type replicon): 0.6 fold | Fold change ([9]; 1b NS3 V170A vs wild-type replicon): 0.8 fold | Fold change ([10]; 6a NS3 D168A vs wild-type replicon): 1,347 fold | Fold change ([10]; 6a NS3 D168H vs wild-type replicon): 2,490 fold | Fold change ([10]; 6a NS3 D168V vs wild-type replicon): 3,336 fold | EC50 ([10]; read-out: Mean EC50 ± SD, 6a NS3 D168A): 162 ± 80 nM | EC50 ([10]; read-out: Mean EC50 ± SD, 6a NS3 D168H): 299 ± 87 nM | EC50 ([10]; read-out: Mean EC50 ± SD, 6a NS3 D168V): 400 ± 139 nM | EC50 ([10]; read-out: Mean EC50 ± SD, 6a wild type, transient transfection): 0.12 ± 0.04 nM | Fold change ([11]; 2a NS3 A156T vs wild-type replicon): 1.7 fold | Fold change ([11]; 2a NS3 A156V vs wild-type replicon): 2.2 fold | Fold change ([11]; 2a NS3 D168A vs wild-type replicon): 18 fold | Fold change ([11]; 2a NS3 D168E vs wild-type replicon): 5.3 fold | Fold change ([11]; 2a NS3 D168V vs wild-type replicon): 13 fold | EC50 [12]: 19 ± 5.2 nM | EC50 [13]: 0.44 ± 0.17 nM

Reference: PMC5740381 (Antimicrobial Agents and Chemotherapy, 2017)
